In US8044079B2, “Substituted oxindole derivatives, medicaments containing said derivatives and use thereof” (Abbott GmbH & Co. KG, priority 2005, dated 2011):

Each compound was assayed against T1, human vasopressin V1b receptor (Homo sapiens, UniProt P47901) (assay: Vasopressin V1b receptor binding test). Conditions: membranes of CHO-K1 cells with human V1b receptor, displacement of 1.5 nM 3H-AVP; for compounds with more than one stereogenic center the diastereomer with greater affinity.
T1 construct: expressed in transfected cells; host or cells: CHO-K1 (cell line hV1b_3H2_CHO), membrane preparation
T1 sequence (P47901 1-424): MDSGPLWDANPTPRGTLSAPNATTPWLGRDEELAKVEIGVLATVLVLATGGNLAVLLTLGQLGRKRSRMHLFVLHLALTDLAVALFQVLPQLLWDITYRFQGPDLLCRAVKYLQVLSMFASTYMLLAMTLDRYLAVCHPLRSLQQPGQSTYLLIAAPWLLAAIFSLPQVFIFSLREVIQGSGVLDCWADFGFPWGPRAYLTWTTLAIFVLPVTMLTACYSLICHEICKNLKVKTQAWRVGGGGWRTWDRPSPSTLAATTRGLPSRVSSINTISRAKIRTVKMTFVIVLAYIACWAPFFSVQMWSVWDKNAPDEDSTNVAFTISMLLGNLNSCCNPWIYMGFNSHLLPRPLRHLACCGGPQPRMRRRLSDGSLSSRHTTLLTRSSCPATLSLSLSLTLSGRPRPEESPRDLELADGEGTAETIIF
Summary of the method: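 Affinity constants (Ki) came from nonlinear regression of triplicate scintillation counts after filtration separated bound from free radioligand. Compounds competed at human V1b membranes for 60 min, room temperature, in pH 7.4 tris/MgCl2/BSA buffer with 2% DMSO; 1 μM AVP defined nonspecific binding.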

Ki, < 10 nM:
COc1ccc(S(=O)(=O)N2C(=O)C(c3cc(CN4CCN(C)CC4)ccc3OC)(N3CCC[C@H]3c3ncon3)c3cc(Cl)ccc32)cc1 (stereo partly drawn) [Example 207, 5-Chloro-1-(4-methoxybenzenesulfonyl)-3-[2-methoxy-5-(4-methylpiperazin-1-ylmethyl)phenyl]-3-((S)-2-[1,2,4]oxadiazol-3-yl-pyrrolidin-1-yl)-1,3-dihydroindol-2-one]
COc1ccc(S(=O)(=O)N2C(=O)C(c3cc(CN(C)C)ccc3OC)(N3CCC[C@H]3c3ncon3)c3cc(Cl)ccc32)cc1 (stereo partly drawn) [Example 209, 5-Chloro-3-(5-dimethylaminomethyl-2-methoxyphenyl)-1-(4-methoxybenzenesulfonyl)-3-((S)-2-[1,2,4]oxadiazol-3-yl-pyrrolidin-1-yl)-1,3-dihydroindol-2-one]
COc1ccc(S(=O)(=O)N2C(=O)C(c3cc(CN4CCCC4)ccc3OC)(N3CCC[C@H]3c3ncon3)c3cc(Cl)ccc32)cc1 (stereo partly drawn) [Example 210, 5-Chloro-1-(4-methoxybenzenesulfonyl)-3-(2-methoxy-5-pyrrolidin-1-ylmethylphenyl)-3-((S)-2-[1,2,4]oxadiazol-3-yl-pyrrolidin-1-yl)-1,3-dihydroindol-2-one]
COc1ccc(S(=O)(=O)N2C(=O)C(c3ccc(CN4CCNCC4)cc3OC)(N3CCC[C@H]3c3ncco3)c3cc(Cl)c(F)cc32)cc1 (stereo partly drawn) [Example 211, 5-Chloro-6-fluoro-1-(4-methoxybenzenesulfonyl)-3-(2-methoxy-4-piperazin-1-ylmethylphenyl)-3-((S)-2-oxazol-2-yl-pyrrolidin-1-yl)-1,3-dihydroindol-2-one]
COc1ccc(S(=O)(=O)N2C(=O)C(c3ccc(CN4CCN(CCO)CC4)cc3OC)(N3CCC[C@H]3c3ncco3)c3cc(Cl)c(F)cc32)cc1 (stereo partly drawn) [Example 212, 5-Chloro-6-fluoro-3-{4-[4-(2-hydroxyethyl)piperazin-1-ylmethyl]-2-methoxyphenyl}-1-(4-methoxybenzenesulfonyl)-3-((S)-2-oxazol-2-yl-pyrrolidin-1-yl)-1,3-dihydroindol-2-one]

Ki, 10 to 100 nM:
CCOc1ccc(CN(C)C)cc1C1(N2CCC[C@H]2c2ncco2)C(=O)N(S(=O)(=O)c2ccc(OC)cc2)c2ccc(Cl)cc21 (stereo partly drawn) [Example 204, 5-Chloro-3-(5-dimethylaminomethyl-2-ethoxyphenyl)-1-(4-methoxybenzenesulfonyl)-3-((S)-2-oxazol-2-yl-pyrrolidin-1-yl)-1,3-dihydroindol-2-one]
CCOc1ccc(CNC(C)C)cc1C1(N2CCC[C@H]2c2ncco2)C(=O)N(S(=O)(=O)c2ccc(OC)cc2)c2ccc(Cl)cc21 (stereo partly drawn) [Example 205, 5-Chloro-3-[2-ethoxy-5-(isopropylaminomethyl)phenyl]-1-(4-methoxybenzenesulfonyl)-3-((S)-2-oxazol-2-yl-pyrrolidin-1-yl)-1,3-dihydroindol-2-one]
CCNCc1ccc(OCC)c(C2(N3CCC[C@H]3c3ncco3)C(=O)N(S(=O)(=O)c3ccc(OC)cc3)c3ccc(Cl)cc32)c1 (stereo partly drawn) [Example 206, 5-Chloro-3-(2-ethoxy-5-ethylaminomethylphenyl)-1-(4-methoxybenzenesulfonyl)-3-((S)-2-oxazol-2-yl-pyrrolidin-1-yl)-1,3-dihydroindol-2-one]
COc1ccc(S(=O)(=O)N2C(=O)C(c3cc(CN4CCNCC4)ccc3OC)(N3CCC[C@H]3c3ncon3)c3cc(Cl)ccc32)cc1 (stereo partly drawn) [Example 208, 5-Chloro-1-(4-methoxybenzenesulfonyl)-3-(2-methoxy-5-piperazin-1-ylmethylphenyl)-3-((S)-2-[1,2,4]oxadiazol-3-yl-pyrrolidin-1-yl)-1,3-dihydroindol-2-one]
COc1ccc(S(=O)(=O)N2C(=O)C(c3cc(CN4CCCC4)ccc3OC)(N3C[C@H](OC(C)(C)C)C[C@H]3c3ncco3)c3cc(Cl)ccc32)cc1 (stereo partly drawn) [Example 213, 3-((2S,4R)-4-tert-butoxy-2-oxazol-2-yl-pyrrolidin-1-yl)-5-chloro-1-(4-methoxybenzenesulfonyl)-3-(2-methoxy-5-pyrrolidin-1-ylmethylphenyl)-1,3-dihydroindol-2-one]
